# Patent EP1247803A2, “Indolinone compounds suitable for modulation of protein kinases” (Sugen, Inc., priority 1996, dated 1998)
# Assays:
# [1] = target: T1, FLK-1 receptor (Mus musculus, UniProt P35918); assay: FLK-1 ELISA (kinase activity of the FLK-1 receptor in FLK-1/NIH3T3 cells, VEGF stimulated); type: cell-based; parameters: concentration or dose not given beside the values
# T1 construct: expressed in transfected cells; host or cells: NIH3T3 C7#3
# In short: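 An ELISA using affinity-purified rabbit anti-FLK-1 antiserum on anti-rabbit IgG-coated plates measured VEGF-stimulated FLK-1 kinase activity. NIH3T3 C7#3 cells carrying FLK-1 were serum-starved (0.1% FBS) overnight, then exposed to compound (final 1:200 dilution, 0.5% DMSO) for two hours at 37 °C.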
# [2] = tested on: MET; assay: MET biochemical kinase assay; parameters: species or system human; concentration or dose not given beside the values
# In short: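 Human MET was captured from cell lysates onto ELISA plates via goat anti-rabbit Fc and rabbit polyclonal antibody to the MET cytoplasmic domain. After washing, test compounds and kinase buffer with ATP and divalent metal ions were added. Phosphotyrosine was detected with HRP-conjugated anti-phosphotyrosine antibody and TMB colorimetric read-out.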
# [3] = target: PDGF-R (Homo sapiens, UniProt P09619); assay: PDGF-R ELISA; type: cell-based
# PDGF-R, sequence (P09619 33-1106, species assumed): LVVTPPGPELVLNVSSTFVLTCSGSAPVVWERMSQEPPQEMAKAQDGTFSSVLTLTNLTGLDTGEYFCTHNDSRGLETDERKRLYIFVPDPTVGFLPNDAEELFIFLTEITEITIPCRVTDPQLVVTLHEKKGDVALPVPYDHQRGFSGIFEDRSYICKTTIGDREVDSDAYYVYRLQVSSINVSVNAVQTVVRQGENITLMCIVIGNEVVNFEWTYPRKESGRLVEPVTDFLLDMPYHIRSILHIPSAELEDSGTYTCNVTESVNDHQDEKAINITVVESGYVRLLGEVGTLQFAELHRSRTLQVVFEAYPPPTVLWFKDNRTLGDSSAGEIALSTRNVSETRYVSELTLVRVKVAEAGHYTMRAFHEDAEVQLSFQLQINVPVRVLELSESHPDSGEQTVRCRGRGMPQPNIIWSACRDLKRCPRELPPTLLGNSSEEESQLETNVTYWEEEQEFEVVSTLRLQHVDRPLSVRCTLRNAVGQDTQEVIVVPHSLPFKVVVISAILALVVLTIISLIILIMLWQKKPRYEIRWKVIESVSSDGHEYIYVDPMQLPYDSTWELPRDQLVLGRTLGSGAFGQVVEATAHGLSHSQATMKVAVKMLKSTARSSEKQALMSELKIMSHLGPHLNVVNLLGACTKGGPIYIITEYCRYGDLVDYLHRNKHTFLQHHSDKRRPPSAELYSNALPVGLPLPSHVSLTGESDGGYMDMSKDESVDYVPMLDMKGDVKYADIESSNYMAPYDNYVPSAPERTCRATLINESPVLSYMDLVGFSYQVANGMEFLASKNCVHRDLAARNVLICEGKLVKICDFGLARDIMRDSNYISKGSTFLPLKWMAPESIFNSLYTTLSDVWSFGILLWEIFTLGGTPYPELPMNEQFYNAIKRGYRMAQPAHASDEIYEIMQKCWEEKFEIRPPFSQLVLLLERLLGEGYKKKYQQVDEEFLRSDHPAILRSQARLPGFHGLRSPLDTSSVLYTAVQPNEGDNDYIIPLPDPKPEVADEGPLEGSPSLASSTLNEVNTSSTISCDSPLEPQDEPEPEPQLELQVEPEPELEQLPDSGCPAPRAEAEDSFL
# Description: A PDGF-R ELISA is described in International Patent Publication No. WO 96/40116, published December 19, 1996 by Tang et al.
# T1 sequence (P35918 20-1345): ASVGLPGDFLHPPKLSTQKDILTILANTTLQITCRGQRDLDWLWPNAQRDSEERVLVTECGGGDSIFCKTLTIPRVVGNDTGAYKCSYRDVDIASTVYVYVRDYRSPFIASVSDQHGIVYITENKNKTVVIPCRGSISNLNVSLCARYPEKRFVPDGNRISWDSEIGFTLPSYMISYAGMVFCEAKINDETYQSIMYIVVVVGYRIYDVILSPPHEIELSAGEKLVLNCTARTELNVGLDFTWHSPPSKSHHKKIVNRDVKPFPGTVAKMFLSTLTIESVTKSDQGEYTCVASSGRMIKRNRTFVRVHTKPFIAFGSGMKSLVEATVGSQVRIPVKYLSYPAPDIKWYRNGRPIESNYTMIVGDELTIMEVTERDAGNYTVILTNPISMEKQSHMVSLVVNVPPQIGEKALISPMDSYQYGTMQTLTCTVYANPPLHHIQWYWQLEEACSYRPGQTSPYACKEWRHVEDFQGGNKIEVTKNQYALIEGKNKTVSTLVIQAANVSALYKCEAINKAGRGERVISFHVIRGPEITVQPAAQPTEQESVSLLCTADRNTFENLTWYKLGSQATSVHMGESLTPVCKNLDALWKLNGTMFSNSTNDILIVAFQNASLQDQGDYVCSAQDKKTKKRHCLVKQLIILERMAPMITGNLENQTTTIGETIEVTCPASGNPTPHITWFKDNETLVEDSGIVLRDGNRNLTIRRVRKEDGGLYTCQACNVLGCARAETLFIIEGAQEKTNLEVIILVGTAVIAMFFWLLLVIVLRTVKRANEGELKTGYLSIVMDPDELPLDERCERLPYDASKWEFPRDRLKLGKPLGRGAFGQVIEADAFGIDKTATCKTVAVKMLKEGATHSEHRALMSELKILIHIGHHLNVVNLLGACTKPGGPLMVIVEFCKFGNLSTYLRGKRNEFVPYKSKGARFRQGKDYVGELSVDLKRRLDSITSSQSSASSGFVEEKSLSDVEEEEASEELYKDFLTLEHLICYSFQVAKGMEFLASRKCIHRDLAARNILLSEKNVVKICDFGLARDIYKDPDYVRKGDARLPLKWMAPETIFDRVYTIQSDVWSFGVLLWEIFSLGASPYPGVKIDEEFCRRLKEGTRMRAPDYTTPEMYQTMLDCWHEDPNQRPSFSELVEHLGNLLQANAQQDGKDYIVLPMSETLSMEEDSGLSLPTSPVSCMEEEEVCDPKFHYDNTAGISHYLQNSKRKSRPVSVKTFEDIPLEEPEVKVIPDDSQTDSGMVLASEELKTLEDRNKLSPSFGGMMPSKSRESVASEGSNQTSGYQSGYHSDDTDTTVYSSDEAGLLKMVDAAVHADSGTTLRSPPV
SMILES,Fik Kinase %Inhibition [1] [%],Met Kinase % Inhibition [2] [%],PDGF Kinase %Inhibition [3] [%]
O=C1Nc2ccc(CCCl)cc2C1=Cc1cccn1-c1ccc(Cl)cc1 [10724/G09],9.1,-2.8,-18.0
Cc1c(Br)ccc2c1C(=Cc1cc3c4c(c1O)CCCN4CCC3)C(=O)N2 [10724/C05],-18.6,67.7,20.3
Cc1c(Br)cc(Br)c2c1C(=Cc1c(Br)cnn1-c1ccc(Cl)cc1)C(=O)N2 [10725/A10],-3.2,43.2,33.7
COc1ccc(Br)c(C=C2C(=O)Nc3c(Br)cc(Br)cc32)c1O [10725/A03],3.6,68.0,5.9
CCc1ccc(C=C2C(=O)Nc3c(Br)cc(Br)cc32)o1 [10724/A10],1.6,83.8,28.6
CC(C)c1cc(C=C2C(=O)Nc3ccc(S(=O)(=O)Nc4ccc(C(F)(F)F)cc4)cc32)cc(C(C)C)c1O [10724/E06],8.3,25.8,6.3
CC(C)c1cc(C=C2C(=O)Nc3ccc(I)cc32)cc(C(C)C)c1O [10724/B06],13.4,52.1,43.2
Cc1c(Br)cc(Br)c2c1C(=Cc1c[nH]cn1)C(=O)N2 [10725/A11],-21.9,49.1,18.9
COc1cc(C)cc(O)c1C=C1C(=O)Nc2c(Br)cc(Br)cc21 [10725/A06],-7.3,71.7,40.9
CNS(=O)(=O)c1ccc2c(c1)C(=Cc1cc(C(C)C)c(O)c(C(C)C)c1)C(=O)N2 [10724/D06],12.4,23.0,40.4
Cc1c(Br)ccc2c1C(=Cc1sc3scc(C)c3c1C)C(=O)N2 [10724/C11],10.3,4.9,23.0
O=C1Nc2ccc(I)cc2C1=Cc1cc2ccccc2o1 [10724/B07],-1.8,57.9,27.2
O=C1Nc2ccc(S(=O)(=O)Nc3ccc(C(F)(F)F)cc3)cc2C1=Cc1cc2c3c(c1O)CCCN3CCC2 [10724/E05],13.8,70.3,-7.6
Cc1c(Br)ccc2c1C(=Cc1ccc([N+](=O)[O-])c(O)c1)C(=O)N2 [10724/C04],-18.6,84.3,24.4
O=C1Nc2ccc(I)cc2C1=Cc1c[nH]cn1 [10725/B11],-42.3,76.3,66.3
O=C1Nc2ccc(S(=O)(=O)Nc3ccc(C(F)(F)F)cc3)cc2C1=Cc1ccc([N+](=O)[O-])c(O)c1 [10724/E04],55.2,93.3,-32.6

SMILES,Fik Kinase %Inhibition [1] [%],Met Kinase % Inhibition [2] [%],PDGF Kinase %Inhibition [3] [%]
CNS(=O)(=O)c1ccc2c(c1)C(=Cc1ccc([N+](=O)[O-])c(O)c1)C(=O)N2 [10724/D04],0.5,70.5,-1.3
CCc1ccc(C=C2C(=O)Nc3ccc(I)cc32)o1 [10724/B10],8.5,95.0,9.8
O=C1Nc2ccc(I)cc2C1=Cc1ccc(O)c([N+](=O)[O-])c1 [10724/B03],-48.9,51.0,14.7
O=C1Nc2ccc(I)cc2C1=Cc1ccc(N2CCOCC2)cc1 [10725/B08],-24.1,66.7,29.4
Cc1c(Br)ccc2c1C(=Cc1cc3ccccc3o1)C(=O)N2 [10724/C07],-1.2,14.2,22.3
CNS(=O)(=O)c1ccc2c(c1)C(=Cc1ccc(N(C)C)c3ccccc13)C(=O)N2 [10724/D02],12.4,37.5,-9.6
CN(C)c1ccc(C=C2C(=O)Nc3c(Br)cc(Br)cc32)c2ccccc12 [10724/A02],1.8,61.7,6.3
Cc1csc2sc(C=C3C(=O)Nc4ccc(CCCl)cc43)c(C)c12 [10724/G11],6.8,11.2,-29.1
CC(C)(C)c1cc(C=C2C(=O)Nc3ccc(CCCl)cc32)c(O)c(C(C)(C)C)c1 [10723/G11],-4.1,39.4,-7.7
O=C1Nc2ccc(CCCl)cc2C1=Cc1ccc(O)c([N+](=O)[O-])c1 [10724/G03],-8.4,36.7,-2.7
O=C1Nc2c(Br)cc(Br)cc2C1=Cc1ccc(O)c([N+](=O)[O-])c1 [10724/A03],-7.8,30.7,0.1
COC(=O)Cc1c(Cl)[nH]c(C=C2C(=O)Nc3c(Br)cc(Br)c(C)c32)c1C(=O)OC [10725/A09],-13.9,44.3,29.4
CCc1ccc(C=C2C(=O)Nc3ccc(S(=O)(=O)Nc4ccc(C(F)(F)F)cc4)cc32)o1 [10724/E10],7.3,84.0,34.9
CN(C)c1ccc(C=C2C(=O)Nc3ccc(CCCl)cc32)c2ccccc12 [10724/G02],15.1,44.9,-7.6
O=C1Nc2c(Br)cc(Br)cc2C1=Cc1cc2ccccc2o1 [10724/A07],3.7,58.7,16.1
